Measured values as given in patent US10266577B2, “GLP-1 derivatives, and uses thereof” (Novo Nordisk A/S, priority 2013, dated 2019).

Experiment: Pharmacokinetic study in minipigs (i.v.)
Conditions: male, Göttingen, minipig, in vivo, iv, 2 nmol/kg

SMILES: CC[C@H](C)[C@H](NC(=O)[C@H](Cc1ccccc1)NC(=O)[C@H](CCC(=O)O)NC(=O)[C@H](CCCNC(=N)N)NC(=O)[C@H](C)NC(=O)[C@H](C)NC(=O)[C@H](CCC(N)=O)NC(=O)[C@H](CCCCNC(=O)COCCOCCNC(=O)COCCOCCNC(=O)CC[C@H](NC(=O)[C@H]1CC[C@H](CNC(=O)CCCCCCCCCCCCCCCS(=O)(=O)O)CC1)C(=O)O)NC(=O)[C@H](CCC(=O)O)NC(=O)[C@H](CC(C)C)NC(=O)[C@H](Cc1ccc(O)cc1)NC(=O)[C@H](CCCCNC(=O)COCCOCCNC(=O)COCCOCCNC(=O)CC[C@H](NC(=O)[C@H]1CC[C@H](CNC(=O)CCCCCCCCCCCCCCCS(=O)(=O)O)CC1)C(=O)O)NC(=O)[C@H](CO)NC(=O)[C@@H](NC(=O)[C@H](CC(=O)O)NC(=O)[C@H](CO)NC(=O)[C@@H](NC(=O)[C@H](Cc1ccccc1)NC(=O)[C@@H](NC(=O)CNC(=O)[C@H](CCC(=O)O)NC(=O)C(C)(C)NC(=O)[C@@H](N)Cc1c[nH]cn1)[C@@H](C)O)[C@@H](C)O)C(C)C)C(=O)N[C@@H](CCCCNC(=O)COCCOCCNC(=O)COCCOCCNC(=O)CC[C@H](NC(=O)[C@H]1CC[C@H](CNC(=O)CCCCCCCCCCCCCCCS(=O)(=O)O)CC1)C(=O)O)C(=O)N[C@@H](Cc1c[nH]c2ccccc12)C(=O)N[C@@H](CC(C)C)C(=O)N[C@H](C(=O)N[C@@H](CCCNC(=N)N)C(=O)NCC(=O)N[C@@H](CCCNC(=N)N)C(=O)NCC(=O)O)C(C)C [Example 1]
- half-life: 162 h
